In US20240131007A1, “METHODS AND COMPOSITIONS FOR PICORNAVIRUS ANTI-VIRAL AGENTS” (University of Connecticut, priority 2022, published 2024):
Read-outs that look alike come from different tables or passages of the source.

Tests used:
EV-A71 = assay: CPE inhibition assay (Cell Titer Glo) against EV-A71 in Vero cells; format: cell-based, Enterovirus A71; conditions: for IC50: Enterovirus A, EVA71, EV-A71, Vero cells, read-out: IC50
in vitro = conditions: African green monkey; for CC50 at 3 days: CC50 (μM)
[1] = Table 10, Scaffold 1, CC50/IC50
[2] = Table 11, Scaffold 2, CC50/IC50
[3] = Table 12, Scaffold 3, CC50/IC50
[4] = Table 13, Scaffold 4, CC50/IC50

SMILES	IC50 (EV-A71; Table 10, Scaffold 1) [µM]	CC50 at 3 days (in vitro) [µM]	other results
O=C(Nc1ccc(-c2nc3ccccc3[nH]2)cc1)c1cc([N+](=O)[O-])ccc1N1CCOCC1 [Compound 19, N-[4-(1H-benzimidazol-2-yl)phenyl]-2-(4-morpholinyl)-5-nitrobenzamide]	7.28	2090	Selectivity Index (EV-A71; [1]): 287.50
O=C(CSCc1ccc([N+](=O)[O-])cc1)Nc1ccc(-c2nc3ccccc3[nH]2)cc1 [Compound 21, N-[4-(1H-benzimidazol-2-yl)phenyl]-2-[(4-nitrobenzyl)thio]acetamide]	> 25	> 400	
O=C(Nc1ccc(-c2nc3ccccc3[nH]2)cc1)c1ccc(-c2cccc([N+](=O)[O-])c2)o1 [Compound 23, N-[4-(1H-benzimidazol-2-yl)phenyl]-5-(3-nitrophenyl)-2-furamide]	> 25	1.14	
O=C(Cc1cccc2ccccc12)Nc1ccc(-c2nc3ccccc3[nH]2)cc1 [Compound 24, N-[4-(1H-benzimidazol-2-yl)phenyl]-2-(1-naphthyl)acetamide]	8.34	58.8	Selectivity Index (EV-A71; [1]): 7.05
O=C(Nc1ccc(-c2nc3ccccc3[nH]2)cc1)c1ccc(-c2ccc(Cl)cc2)o1 [Compound 26, N-[4-(1H-benzimidazol-2-yl)phenyl]-5-(4-chlorophenyl)-2-furamide]	5.7	44.3	Selectivity Index (EV-A71; [1]): 7.77
O=C(Nc1ccc(-c2nc3ccccc3[nH]2)cc1)c1ccc(-c2cccc(Cl)c2)o1 [Compound 27, N-[4-(1H-benzimidazol-2-yl)phenyl]-5-(3-chlorophenyl)-2-furamide]	5.85	67.6	Selectivity Index (EV-A71; [1]): 11.56
CC(=O)Nc1ccc(-c2nc3cc(C)ccc3[nH]2)cc1 [Compound 29, N-[4-(5-methyl-1H-benzimidazol-2-yl)phenyl]acetamide]	69.3	> 400	Selectivity Index (EV-A71; [1]): >5.77
CC(=O)Nc1ccc(-c2nc3ccc(Cl)cc3[nH]2)cc1 [Compound 30, N-[4-(6-chloro-1H-benzimidazol-2-yl)phenyl]acetamide]	> 25	> 400	
Cc1ccc2[nH]c(-c3ccc(NC(=O)C4CC4)cc3)nc2c1 [Compound 31, N-[4-(5-methyl-1H-benzimidazol-2-yl)phenyl]cyclopropanecarboxamide]	9.6	> 400	Selectivity Index (EV-A71; [1]): >41.67
CCC(=O)Nc1ccc(-c2nc3ccc(Cl)cc3[nH]2)cc1 [Compound 32, N-[4-(6-chloro-1H-benzimidazol-2-yl)phenyl]propanamide]	> 25	> 400	
Cc1ccc2[nH]c(-c3ccc(NC(=O)C(C)C)cc3)nc2c1 [Compound 33, 2-methyl-N-[4-(5-methyl-1H-benzimidazol-2-yl)phenyl]propanamide]	11.8	468	Selectivity Index (EV-A71; [1]): 39.46
Cc1ccc2[nH]c(-c3ccc(NC(=O)C(F)(F)F)cc3)nc2c1 [Compound 34, 2,2,2-trifluoro-N-[4-(5-methyl-1H-benzimidazol-2-yl)phenyl]acetamide]	> 25	618	
Cc1ccc2[nH]c(-c3ccc(NC(=O)COc4ccccc4)cc3)nc2c1 [Compound 38, N-[4-(5-methyl-1H-benzimidazol-2-yl)phenyl]-2-phenoxyacetamide]	> 25	> 400	
Cc1ccc2[nH]c(-c3ccc(NC(=O)Cc4ccccc4)cc3)nc2c1 [Compound 39, N-[4-(5-methyl-1H-benzimidazol-2-yl)phenyl]-2-phenylacetamide]	> 25	> 400	
Cc1ccc(OCC(=O)Nc2ccc(-c3nc4cc(C)ccc4[nH]3)cc2)cc1 [Compound 41, N-[4-(5-methyl-1H-benzimidazol-2-yl)phenyl]-2-(4-methylphenoxy)acetamide]	> 25	> 400	
O=C(c1ccccc1)c1ccc2[nH]c(-c3ccc(NC(=O)c4ccco4)cc3)nc2c1 [Compound 45, N-[4-(5-benzoyl-1H-benzimidazol-2-yl)phenyl]-2-furamide]		59.1	IC50 (EV-A71; Table 8, virus-induced CPE): 4.71 µM; Selectivity Index (EV-A71; Table 8, CC50/IC50): 12.56; Selectivity Index (EV-A71; [1]): 12.56
CC(=O)Nc1ccc(-c2nc3cc4ccccc4cc3[nH]2)cc1 [Compound 47, N-[4-(1H-naphtho[2,3-d]imidazol-2-yl)phenyl]acetamide]		477	IC50 (EV-A71; Table 8, virus-induced CPE): 4.22 µM; Selectivity Index (EV-A71; Table 8, CC50/IC50): 113.08; Selectivity Index (EV-A71; [2]): 113.08
O=C(CCc1ccccc1)Nc1ccc(-c2nc3cc4ccccc4cc3[nH]2)cc1 [Compound 49, N-[4-(1H-naphtho[2,3-d]imidazol-2-yl)phenyl]-3-phenylpropanamide]		154	IC50 (EV-A71; Table 11, Scaffold 2): 22.1 µM; Selectivity Index (EV-A71; [2]): 6.99
O=C(Nc1cccc(-c2nc3cc4ccccc4cc3[nH]2)c1)c1ccco1 [Compound 50, N-[3-(1H-naphtho[2,3-d]imidazol-2-yl)phenyl]-2-furamide]		562	IC50 (EV-A71; Table 11, Scaffold 2): > 25 µM
O=C(Nc1ccc2[nH]c(-c3ccccc3)nc2c1)c1ccccc1 [Compound 53, N-(2-phenyl-1H-benzimidazol-5-yl)benzamide]			Selectivity Index (EV-A71): 9.43; IC50 (EV-A71; Table 12, Scaffold 3): 13.2 µM; CC50 (in vitro): 125 µM
Cn1cccc1-c1nc2cc(NC(=O)c3ccccc3)ccc2[nH]1 [Compound 54, N-[2-(1-methyl-1H-pyrrol-2-yl)-1H-benzimidazol-5-yl]benzamide]		33.1	IC50 (EV-A71; Table 12, Scaffold 3): 47.6 µM; Selectivity Index (EV-A71; [3]): 0.69
Cn1cccc1-c1nc2cc(NC(=O)c3cccs3)ccc2[nH]1 [Compound 58, N-[2-(1-methyl-1H-pyrrol-2-yl)-1H-benzimidazol-5-yl]-2-thiophenecarboxamide]		62.8	IC50 (EV-A71; Table 12, Scaffold 3): 23.7 µM; Selectivity Index (EV-A71; [3]): 2.66
Cc1ccc2[nH]c(-c3ccc(N)cc3)nc2c1 [Compound 59, 4-(5-methyl-1H-benzimidazol-2-yl)aniline]		189	IC50 (EV-A71; Table 13, Scaffold 4): > 25 µM
Cc1ccc(-c2nc3ccccc3[nH]2)cc1NC(=O)c1ccco1 [Compound 60, N-[5-(1H-benzimidazol-2-yl)-2-methylphenyl]-2-furamide]		> 400	IC50 (EV-A71; Table 13, Scaffold 4): > 25 µM
Nc1ccc(-c2nc3ccc(Cl)cc3[nH]2)cc1 [Compound 61, 4-(6-chloro-1H-benzimidazol-2-yl)aniline]		126	IC50 (EV-A71; Table 13, Scaffold 4): 51.3 µM; Selectivity Index (EV-A71; [4]): 2.46
O=C(Nc1cccc(-c2nc3ccccc3[nH]2)c1)c1ccco1 [Compound 62, N-[3-(1H-benzimidazol-2-yl)phenyl]-2-furamide]		81.5	IC50 (EV-A71; Table 13, Scaffold 4): 50.2 µM; Selectivity Index (EV-A71; [4]): 1.62
Cc1ccc2[nH]c(-c3cccc(NC(=O)c4ccc(Br)o4)c3)nc2c1 [Compound 64, 5-bromo-N-[3-(5-methyl-1H-benzimidazol-2-yl)phenyl]-2-furamide]		43.8	IC50 (EV-A71; Table 13, Scaffold 4): 71.4 µM; Selectivity Index (EV-A71; [4]): 0.61
c1ccc2[nH]c(-c3ccc(-c4nc5ccccc5[nH]4)cc3)nc2c1 [Compound 65, 2,2′-(1,4-phenylene)bis-1H-benzimidazole]		379	IC50 (EV-A71; Table 8, virus-induced CPE): 2.17 µM; Selectivity Index (EV-A71; Table 8, CC50/IC50): 174.52; Selectivity Index (EV-A71; [4]): 174.52
